Measured values: US6544541B1, “Devices and compounds for treating arterial restenosis” (Cardiovascular Solutions, Inc., priority 1999, dated 2003)

System: H4IIE hepatoma cells
Experiment: MTT staining of viable cells (cell number)
Type: cell-based
Experimental: In this assay, H4IIE cells are plated on 96-well dishes, and incubated in standard growth medium. Separate plates were prepared for comparing the effects of MIBG after 2 or 4 days. At those time points, 200 μl of 5 mg/ml MTT was added to each well, and the cells were incubated an additional 4 hours. The medium was removed and cells were treated with acidified isopropanol and the absorbance read at 570 nm. Increased absorbance is indicative of increases in cell number.

Q: meta-iodobenzylguanidine [MIBG] was tested. Which “effect on cell number” value (20 μM, 2 or 4 days, FIG. 3) did it give?
A: effective in preventing increases in cell number

Q: What about the MTT staining (200 μM, up to 96 hours) of the same substance?
A: 60 % of control values
